Measurements reported in patent publication US20260166160A1, “PROTACS TARGETING VIRAL ENZYMES FOR PRECISE TREATMENT OF COVID-19” (Ohio University, priority 2022, published 2026).
Read-outs that look alike come from different tables or passages of the source.

What was measured:
[1] = target: Mpro (Severe acute respiratory syndrome coronavirus 2, UniProt P0DTD1); assay: Mpro degradation in HEK293 cells stably expressing wild-type Mpro (tetracycline-inducible), Western Blot with anti-T7 antibodies; format: cell-based, SARS-CoV-2; settings: for remaining activity at 0.5 µM: HEK293, 24 h, read-out: Mpro (relative concentration)
Excerpt: To evaluate the degradation activity of MP-C-4N (initially, and additional PROTAC compounds later), a Mpro expression system was constructed in mammalian cells. A cell line stably expressing wild-type Mpro was constructed. According to the RNA sequence of wild-type Mpro, the corresponding DNA sequence was synthesized and codon-optimzied to be suitable for expression in HEK293 cells. After investigating the influence of different expression vectors and promoters on the protein expression level, pCW57.1-TetOn was selected as the expression vector, which contains a tetracycline-inducible promoter, and the target protein expression can be started or closed by controlling the content of tetracycline. With this cell line, the process of expressing MPro during virus infection in human cells was successfully simulated. This model was used to successfully test the degradation ability of candidate compounds on the target protein. Specifically, the cells were treated with doxycycline (1 μg/mL) for 12 h. After removing doxycycline, the cells were treated with PROTACs with indicated concentrations for 24 h and then harvested. The expression of Mpro was determined by Western Blot (WB) analysis using anti-T7 antibodies.

[2] = test system: human coronavirus OC43 (HCoV-OC43); assay: Anti-virus activity, HCoV-OC43 plaque formation in RD cells
[3] = compound at 500 nM, control 100%, Tables 1-3
[4] = Betacoronavirus 1, OC43, RD, RD cells infected with HCoV-OC43, 33° C., 4-5 days, plaque areas, Tables 7-11

SMILES	remaining activity at 0.5 µM [1] [%]	EC50 ([2]; Betacoronavirus 1, OC43, RD) [nM]	other results
Cc1ccc(NC(=O)c2ccc(CN3CCN(C(=O)CCOCCNc4cccc5c4C(=O)N(C4CCC(=O)NC4=O)C5=O)CC3)cc2)cc1Nc1nc(-c2cccnc2)cs1 (centres unmarked) [MP-18, 4-((4-(3-(2-((2-(2,6-dioxopiperidin-3-yl)-1,3-dioxoisoindolin-4-yl)amino)ethoxy)propanoyl)piperazin-1-yl)methyl)-N-(4-methyl-3-((4-(pyridin-3-yl)thiazol-2-yl)amino)phenyl)benzamide]	45	336	
Cc1ccc(NC(=O)c2ccc(CN3CCN(C(=O)CCOCCOCCNc4cccc5c4C(=O)N(C4CCC(=O)NC4=O)C5=O)CC3)cc2)cc1Nc1nc(-c2cccnc2)cs1 (centres unmarked) [MP-19]	32	318	
Cc1ccc(NC(=O)c2ccc(CN3CCN(C(=O)CCOCCOCCOCCNc4cccc5c4C(=O)N(C4CCC(=O)NC4=O)C5=O)CC3)cc2)cc1Nc1nc(-c2cccnc2)cs1 (centres unmarked) [MP-20]	28	310	
Cc1ccc(NC(=O)c2ccc(CN3CCN(C(=O)CCOCCOCCOCCOCCNc4cccc5c4C(=O)N(C4CCC(=O)NC4=O)C5=O)CC3)cc2)cc1Nc1nc(-c2cccnc2)cs1 (centres unmarked) [MP-21]	52	480	
Cc1ccc(NC(=O)c2ccc(CN3CCN(C(=O)CCOCCOCCOCCOCCOCCNc4cccc5c4C(=O)N(C4CCC(=O)NC4=O)C5=O)CC3)cc2)cc1Nc1nc(-c2cccnc2)cs1 (centres unmarked) [MP-22]	75	615	
O=C(CCOCCNc1cccc2c1C(=O)N(C1CCC(=O)NC1=O)C2=O)NCCn1cc(NC(=O)c2c(Cl)cccc2Cl)c(C(=O)NC2CCNCC2)n1 (centres unmarked) [MP-28, 4-(2,6-dichlorobenzamido)-1-(2-(3-(2-((2-(2,6-dioxopiperidin-3-yl)-1,3-dioxoisoindolin-4-yl)amino)ethoxy)propanamido)ethyl)-N-(piperidin-4-yl)-1H-pyrazole-3-carboxamide]	33	315	
O=C(CCOCCOCCNc1cccc2c1C(=O)N(C1CCC(=O)NC1=O)C2=O)NCCn1cc(NC(=O)c2c(Cl)cccc2Cl)c(C(=O)NC2CCNCC2)n1 (centres unmarked) [MP-29]	40	380	
O=C(CCOCCOCCOCCNc1cccc2c1C(=O)N(C1CCC(=O)NC1=O)C2=O)NCCn1cc(NC(=O)c2c(Cl)cccc2Cl)c(C(=O)NC2CCNCC2)n1 (centres unmarked) [MP-30]	52	435	
O=C(CCOCCOCCOCCOCCNc1cccc2c1C(=O)N(C1CCC(=O)NC1=O)C2=O)NCCn1cc(NC(=O)c2c(Cl)cccc2Cl)c(C(=O)NC2CCNCC2)n1 (centres unmarked) [MP-31]	65	520	
O=C(CCOCCOCCOCCOCCOCCNc1cccc2c1C(=O)N(C1CCC(=O)NC1=O)C2=O)NCCn1cc(NC(=O)c2c(Cl)cccc2Cl)c(C(=O)NC2CCNCC2)n1 (centres unmarked) [MP-32]	80	830	
CC(C)C[C@H](NC(=O)[C@@H](NC(=O)[C@H](C)NC(=O)CCOCCNc1cccc2c1C(=O)N(C1CCC(=O)NC1=O)C2=O)C(C)C)C(=O)N[C@H](C#N)C[C@@H]1CCNC1=O (some centres unmarked) [MP-38]			remaining activity at 0.5 µM [1, 3]: 50%; EC50 [2, 4]: 380 nM
CC(C)C[C@H](NC(=O)[C@@H](NC(=O)[C@H](C)NC(=O)CCOCCOCCNc1cccc2c1C(=O)N(C1CCC(=O)NC1=O)C2=O)C(C)C)C(=O)N[C@H](C#N)C[C@@H]1CCNC1=O (some centres unmarked) [MP-39]			remaining activity at 0.5 µM [1, 3]: 40%; EC50 [2, 4]: 235 nM
CC(C)C[C@H](NC(=O)[C@@H](NC(=O)[C@H](C)NC(=O)CCOCCOCCNc1cccc2c1C(=O)N(C1CCC(=O)NC1=O)C2=O)C(C)C)C(=O)N[C@H](C#N)C[C@@H]1CCNC1=O (some centres unmarked) [MP-40]			Mpro (relative concentration) [1, 3]: 25%; EC50 ([2]; RD cells infected with HCoV-OC43, 33° C., 4-5 days, plaque areas, Tables 7-11): 225 nM
CC(C)C[C@H](NC(=O)[C@@H](NC(=O)[C@H](C)NC(=O)CCOCCOCCOCCNc1cccc2c1C(=O)N(C1CCC(=O)NC1=O)C2=O)C(C)C)C(=O)N[C@H](C#N)C[C@@H]1CCNC1=O (some centres unmarked) [MP-41]			remaining activity at 0.5 µM [1, 3]: 45%; EC50 [2, 4]: 325 nM
CC(C)C[C@H](NC(=O)[C@@H](NC(=O)[C@H](C)NC(=O)CCOCCOCCOCCOCCNc1cccc2c1C(=O)N(C1CCC(=O)NC1=O)C2=O)C(C)C)C(=O)N[C@H](C#N)C[C@@H]1CCNC1=O (some centres unmarked) [MP-42]			remaining activity at 0.5 µM [1, 3]: 70%; EC50 [2, 4]: 410 nM
CC(C)C1CCN(C(=O)[C@@H](NC(=O)[C@H](C)NC(=O)CCOCCOCCOCCNc2cccc3c2C(=O)N(C2CCC(=O)NC2=O)C3=O)C(C)(C)C)C1C(=O)N[C@H](C#N)CC1CCNC1=O (some centres unmarked) [MP-C-4N]			concentration at which degradation of Mpro was detected ([1]; WB, cells treated 24 h, FIG. 55): 0.5 to 1.0 µM; concentration dependence of Mpro degradation activity ([1]; WB, FIG. 55): concentration-dependent
